Like-named read-outs stand apart in the source and are kept apart here.
Assays:
Format in all cases: binding
[1] = target: T1, HeLa cell extract proteins (Homo sapiens, UniProt P61106)
T1 construct: endogenous in cells; host or cells: HeLa cell extract

[2] = target: T2, HeLa cell extract proteins (Homo sapiens, UniProt O15397)
T2 construct: endogenous in cells; host or cells: HeLa cell extract

[3] = target: T3, HeLa cell extract proteins (Homo sapiens, UniProt Q96PK6)
T3 construct: endogenous in cells; host or cells: HeLa cell extract
T3 sequence (Q96PK6 1-669): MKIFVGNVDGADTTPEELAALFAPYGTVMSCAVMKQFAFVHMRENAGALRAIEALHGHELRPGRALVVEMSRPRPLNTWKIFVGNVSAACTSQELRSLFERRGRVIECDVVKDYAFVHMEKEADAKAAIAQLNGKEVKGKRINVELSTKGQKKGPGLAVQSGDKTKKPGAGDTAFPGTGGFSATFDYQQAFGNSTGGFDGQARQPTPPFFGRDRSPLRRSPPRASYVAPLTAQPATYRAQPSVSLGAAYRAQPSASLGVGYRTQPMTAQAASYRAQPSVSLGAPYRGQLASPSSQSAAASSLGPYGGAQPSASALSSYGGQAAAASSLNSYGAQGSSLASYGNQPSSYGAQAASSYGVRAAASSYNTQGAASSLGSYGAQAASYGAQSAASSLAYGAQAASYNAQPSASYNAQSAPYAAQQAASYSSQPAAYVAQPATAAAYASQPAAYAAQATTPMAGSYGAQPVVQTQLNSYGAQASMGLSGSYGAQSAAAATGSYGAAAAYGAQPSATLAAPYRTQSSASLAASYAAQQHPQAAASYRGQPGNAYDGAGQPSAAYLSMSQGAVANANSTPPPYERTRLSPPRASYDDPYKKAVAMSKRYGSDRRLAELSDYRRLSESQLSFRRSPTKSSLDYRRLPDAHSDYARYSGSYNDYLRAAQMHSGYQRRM

[4] = target: T4, HeLa cell extract proteins (Homo sapiens, UniProt P31689)
T4 construct: endogenous in cells; host or cells: HeLa cell extract
T4 sequence (P31689 whole entry): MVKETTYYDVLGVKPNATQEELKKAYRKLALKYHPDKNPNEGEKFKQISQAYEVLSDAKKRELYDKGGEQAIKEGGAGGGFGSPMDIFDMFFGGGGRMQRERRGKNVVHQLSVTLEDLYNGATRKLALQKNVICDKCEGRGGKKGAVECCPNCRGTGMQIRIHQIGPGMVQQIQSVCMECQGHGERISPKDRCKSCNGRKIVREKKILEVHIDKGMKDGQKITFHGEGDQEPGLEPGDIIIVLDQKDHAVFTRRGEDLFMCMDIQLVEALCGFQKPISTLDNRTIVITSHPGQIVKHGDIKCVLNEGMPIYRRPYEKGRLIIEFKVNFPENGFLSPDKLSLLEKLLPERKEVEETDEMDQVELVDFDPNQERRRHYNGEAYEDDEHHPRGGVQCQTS

[5] = target: T5, HeLa cell extract proteins (Homo sapiens, UniProt Q99720)
T5 construct: endogenous in cells; host or cells: HeLa cell extract
T5 sequence (Q99720 whole entry): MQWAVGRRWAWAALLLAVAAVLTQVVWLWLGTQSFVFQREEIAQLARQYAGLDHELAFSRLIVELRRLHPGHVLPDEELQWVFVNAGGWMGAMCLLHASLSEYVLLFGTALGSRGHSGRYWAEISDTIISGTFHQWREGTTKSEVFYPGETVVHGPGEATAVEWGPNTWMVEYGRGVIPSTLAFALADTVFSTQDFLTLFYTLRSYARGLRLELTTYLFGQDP

[6] = target: T6, HeLa cell extract proteins (Homo sapiens, UniProt Q13409)
T6 construct: endogenous in cells; host or cells: HeLa cell extract
T6 sequence (Q13409 whole entry): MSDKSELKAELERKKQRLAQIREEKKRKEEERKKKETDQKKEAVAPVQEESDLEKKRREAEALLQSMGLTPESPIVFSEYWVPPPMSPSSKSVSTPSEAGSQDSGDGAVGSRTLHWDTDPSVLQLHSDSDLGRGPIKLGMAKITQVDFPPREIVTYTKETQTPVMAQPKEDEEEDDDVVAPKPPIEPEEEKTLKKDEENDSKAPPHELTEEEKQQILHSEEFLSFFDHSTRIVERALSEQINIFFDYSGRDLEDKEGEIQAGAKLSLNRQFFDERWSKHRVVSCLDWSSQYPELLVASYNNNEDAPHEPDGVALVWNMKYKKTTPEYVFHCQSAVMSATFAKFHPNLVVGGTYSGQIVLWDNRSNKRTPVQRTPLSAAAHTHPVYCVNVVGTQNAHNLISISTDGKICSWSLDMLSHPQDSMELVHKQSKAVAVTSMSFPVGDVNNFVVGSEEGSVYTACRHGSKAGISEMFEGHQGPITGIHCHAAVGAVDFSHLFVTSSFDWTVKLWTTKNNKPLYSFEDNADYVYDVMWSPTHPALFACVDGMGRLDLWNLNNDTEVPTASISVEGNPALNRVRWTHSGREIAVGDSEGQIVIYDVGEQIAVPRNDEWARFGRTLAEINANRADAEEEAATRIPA

[7] = target: T7, HeLa cell extract proteins (Homo sapiens, UniProt O00148)
T7 construct: endogenous in cells; host or cells: HeLa cell extract
T7 sequence (O00148 whole entry): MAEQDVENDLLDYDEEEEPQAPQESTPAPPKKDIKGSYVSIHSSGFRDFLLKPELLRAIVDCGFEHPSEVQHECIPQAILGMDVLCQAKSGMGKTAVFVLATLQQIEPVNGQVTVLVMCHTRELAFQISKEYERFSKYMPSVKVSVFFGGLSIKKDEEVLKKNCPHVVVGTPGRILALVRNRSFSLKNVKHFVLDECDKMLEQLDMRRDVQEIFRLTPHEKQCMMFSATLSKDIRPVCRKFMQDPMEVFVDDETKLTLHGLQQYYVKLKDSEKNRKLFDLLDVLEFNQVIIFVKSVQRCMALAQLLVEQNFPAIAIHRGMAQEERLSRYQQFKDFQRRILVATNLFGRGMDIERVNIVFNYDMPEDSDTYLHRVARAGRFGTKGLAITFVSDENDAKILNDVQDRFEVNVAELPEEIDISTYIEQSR

[8] = target: T8, HeLa cell extract proteins (Homo sapiens, UniProt P17844)
T8 construct: endogenous in cells; host or cells: HeLa cell extract

[9] = target: T9, HeLa cell extract proteins (Homo sapiens, UniProt Q9NSI6)
T9 construct: endogenous in cells; host or cells: HeLa cell extract

[10] = target: T10, HeLa cell extract proteins (Homo sapiens, UniProt P30101)
T10 construct: endogenous in cells; host or cells: HeLa cell extract
T10 sequence (P30101 25-505): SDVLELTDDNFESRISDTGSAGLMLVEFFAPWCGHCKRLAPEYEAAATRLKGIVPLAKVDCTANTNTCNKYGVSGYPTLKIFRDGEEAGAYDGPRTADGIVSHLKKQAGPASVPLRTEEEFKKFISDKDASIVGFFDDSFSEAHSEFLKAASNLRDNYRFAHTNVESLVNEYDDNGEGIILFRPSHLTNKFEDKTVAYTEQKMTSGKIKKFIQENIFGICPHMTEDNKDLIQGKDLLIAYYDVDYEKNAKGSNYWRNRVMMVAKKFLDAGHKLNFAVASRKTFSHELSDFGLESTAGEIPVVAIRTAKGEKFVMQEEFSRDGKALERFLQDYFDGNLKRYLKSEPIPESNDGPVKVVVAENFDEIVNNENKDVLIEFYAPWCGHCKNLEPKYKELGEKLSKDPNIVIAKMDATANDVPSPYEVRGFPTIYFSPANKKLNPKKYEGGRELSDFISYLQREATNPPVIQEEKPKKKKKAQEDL

[11] = target: T11, HeLa cell extract proteins (Homo sapiens, UniProt O95831)
T11 construct: endogenous in cells; host or cells: HeLa cell extract
T11 sequence (O95831 102-613): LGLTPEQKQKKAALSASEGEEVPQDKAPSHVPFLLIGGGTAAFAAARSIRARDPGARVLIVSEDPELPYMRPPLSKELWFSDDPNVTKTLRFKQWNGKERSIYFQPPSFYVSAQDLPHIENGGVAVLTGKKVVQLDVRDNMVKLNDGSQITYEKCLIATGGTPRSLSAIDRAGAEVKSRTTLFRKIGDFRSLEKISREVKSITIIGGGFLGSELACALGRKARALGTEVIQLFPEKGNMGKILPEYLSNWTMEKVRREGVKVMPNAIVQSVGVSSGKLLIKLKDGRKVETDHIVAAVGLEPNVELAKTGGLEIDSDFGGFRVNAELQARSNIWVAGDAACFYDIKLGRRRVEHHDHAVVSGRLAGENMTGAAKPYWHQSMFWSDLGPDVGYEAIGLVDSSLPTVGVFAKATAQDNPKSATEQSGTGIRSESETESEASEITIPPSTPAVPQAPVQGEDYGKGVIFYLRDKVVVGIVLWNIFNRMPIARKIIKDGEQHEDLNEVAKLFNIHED

[12] = target: T12, HeLa cell extract proteins (Homo sapiens, UniProt Q13263)
T12 construct: endogenous in cells; host or cells: HeLa cell extract
T12 sequence (Q13263 whole entry): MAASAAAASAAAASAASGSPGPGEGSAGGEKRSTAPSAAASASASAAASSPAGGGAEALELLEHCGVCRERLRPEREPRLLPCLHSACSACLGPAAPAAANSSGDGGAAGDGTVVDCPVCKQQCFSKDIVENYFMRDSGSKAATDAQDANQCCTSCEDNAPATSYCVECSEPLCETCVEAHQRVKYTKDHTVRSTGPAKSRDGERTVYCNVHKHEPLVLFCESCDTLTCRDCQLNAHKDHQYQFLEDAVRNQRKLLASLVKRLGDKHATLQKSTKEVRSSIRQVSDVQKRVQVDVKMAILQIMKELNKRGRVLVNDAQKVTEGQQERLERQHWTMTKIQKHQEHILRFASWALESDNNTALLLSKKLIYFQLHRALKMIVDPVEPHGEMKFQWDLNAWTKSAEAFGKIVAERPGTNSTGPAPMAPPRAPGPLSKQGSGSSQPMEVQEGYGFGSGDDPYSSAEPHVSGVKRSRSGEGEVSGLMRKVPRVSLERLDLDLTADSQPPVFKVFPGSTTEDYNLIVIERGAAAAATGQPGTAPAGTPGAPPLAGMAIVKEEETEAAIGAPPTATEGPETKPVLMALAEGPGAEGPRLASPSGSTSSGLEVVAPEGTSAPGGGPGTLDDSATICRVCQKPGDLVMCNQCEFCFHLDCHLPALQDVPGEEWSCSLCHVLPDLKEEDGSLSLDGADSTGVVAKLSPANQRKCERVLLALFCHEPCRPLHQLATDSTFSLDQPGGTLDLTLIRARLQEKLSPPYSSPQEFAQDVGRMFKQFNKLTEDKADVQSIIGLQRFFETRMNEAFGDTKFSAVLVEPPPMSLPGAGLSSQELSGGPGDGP

[13] = target: T13, HeLa cell extract proteins (Homo sapiens, UniProt P30040)
T13 construct: endogenous in cells; host or cells: HeLa cell extract

[14] = target: T14, HeLa cell extract proteins (Homo sapiens, UniProt O43809)
T14 construct: endogenous in cells; host or cells: HeLa cell extract
T14 sequence (O43809 whole entry): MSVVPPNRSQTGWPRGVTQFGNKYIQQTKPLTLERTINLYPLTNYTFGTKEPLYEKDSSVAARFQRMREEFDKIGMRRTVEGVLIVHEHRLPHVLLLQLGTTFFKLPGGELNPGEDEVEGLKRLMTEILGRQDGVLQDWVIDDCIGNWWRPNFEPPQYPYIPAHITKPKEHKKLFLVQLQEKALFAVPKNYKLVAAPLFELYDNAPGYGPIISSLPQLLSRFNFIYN

[15] = target: T15, HeLa cell extract proteins (Homo sapiens, UniProt Q9H000)
T15 construct: endogenous in cells; host or cells: HeLa cell extract
T15 sequence (Q9H000 1-416): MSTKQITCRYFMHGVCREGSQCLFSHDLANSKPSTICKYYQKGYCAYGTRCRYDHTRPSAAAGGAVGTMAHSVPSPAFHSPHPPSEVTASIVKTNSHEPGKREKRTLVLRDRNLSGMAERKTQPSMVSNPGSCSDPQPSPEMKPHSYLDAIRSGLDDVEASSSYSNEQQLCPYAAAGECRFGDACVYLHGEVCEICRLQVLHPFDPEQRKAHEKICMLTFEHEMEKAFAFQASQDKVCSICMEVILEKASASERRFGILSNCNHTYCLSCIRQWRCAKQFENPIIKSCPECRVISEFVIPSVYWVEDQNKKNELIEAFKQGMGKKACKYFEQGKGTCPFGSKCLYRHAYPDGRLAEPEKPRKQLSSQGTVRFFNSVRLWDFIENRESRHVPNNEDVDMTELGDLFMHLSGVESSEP

[16] = HeLa, protein DDX5 (PROBABLE ATP-DEPENDENT RNA HELICASE DDX5)
[17] = HeLa, protein MKRN2 (MAKORIN-2)
[18] = HeLa, protein DDX39 (CDNA FLJ55484, HIGHLY SIMILAR TO ATP-DEPENDENT RNA HELICASE DDX39.)

T2 sequence (O15397 whole entry): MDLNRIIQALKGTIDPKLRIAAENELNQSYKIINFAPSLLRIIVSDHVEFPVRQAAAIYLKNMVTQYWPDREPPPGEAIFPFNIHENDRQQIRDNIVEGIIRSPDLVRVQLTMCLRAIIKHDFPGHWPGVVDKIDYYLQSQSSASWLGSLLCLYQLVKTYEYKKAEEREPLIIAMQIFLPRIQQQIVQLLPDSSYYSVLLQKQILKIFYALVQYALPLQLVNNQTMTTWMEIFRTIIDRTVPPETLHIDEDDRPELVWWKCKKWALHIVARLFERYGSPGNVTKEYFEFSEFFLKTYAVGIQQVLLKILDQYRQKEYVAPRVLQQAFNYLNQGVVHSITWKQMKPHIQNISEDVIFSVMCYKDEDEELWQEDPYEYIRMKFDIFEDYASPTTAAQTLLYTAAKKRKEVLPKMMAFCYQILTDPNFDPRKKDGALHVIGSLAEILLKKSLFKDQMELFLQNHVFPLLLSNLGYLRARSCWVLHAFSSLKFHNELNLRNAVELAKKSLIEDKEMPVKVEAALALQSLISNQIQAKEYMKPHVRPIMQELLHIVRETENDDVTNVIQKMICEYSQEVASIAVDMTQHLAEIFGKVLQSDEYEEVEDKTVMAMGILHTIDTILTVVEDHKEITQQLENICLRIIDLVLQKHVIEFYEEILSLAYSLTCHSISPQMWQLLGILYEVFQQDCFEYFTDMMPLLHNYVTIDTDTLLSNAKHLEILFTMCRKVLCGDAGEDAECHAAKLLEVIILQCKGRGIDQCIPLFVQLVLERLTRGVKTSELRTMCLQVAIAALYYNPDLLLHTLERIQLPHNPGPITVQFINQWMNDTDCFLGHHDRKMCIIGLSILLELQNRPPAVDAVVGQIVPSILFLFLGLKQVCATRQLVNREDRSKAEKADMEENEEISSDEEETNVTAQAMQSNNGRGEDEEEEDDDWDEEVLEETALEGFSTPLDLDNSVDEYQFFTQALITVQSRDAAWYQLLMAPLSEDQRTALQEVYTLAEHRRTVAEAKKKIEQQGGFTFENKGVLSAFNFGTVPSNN
T1 sequence (P61106 whole entry): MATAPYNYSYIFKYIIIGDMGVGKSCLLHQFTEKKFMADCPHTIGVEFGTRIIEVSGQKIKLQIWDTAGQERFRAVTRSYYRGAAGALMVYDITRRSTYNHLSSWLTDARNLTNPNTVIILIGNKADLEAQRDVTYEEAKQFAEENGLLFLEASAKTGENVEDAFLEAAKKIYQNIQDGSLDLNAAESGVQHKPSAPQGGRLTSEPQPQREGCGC

Row | Compound | fold changes relative to vehicle control ([1]; HeLa, protein RAB14) | fold changes relative to vehicle control ([2]; protein IPO8, HeLa) | fold changes relative to vehicle control ([3]; HeLa, captured protein RBM14) | fold changes relative to vehicle control ([4]; HeLa, protein DNAJA1) | fold changes relative to vehicle control ([5]; HeLa, protein SIGMAR1) | fold changes relative to vehicle control ([6]; HeLa, protein DYNC1I2) | fold changes relative to vehicle control ([7]; HeLa, protein DDX39) | fold changes relative to vehicle control [8, 16] | fold changes relative to vehicle control ([9]; HeLa, protein BRWD1) | fold changes relative to vehicle control ([10]; protein PDIA3, HeLa) | fold changes relative to vehicle control ([11]; protein AIFM1, HeLa) | fold changes relative to vehicle control ([12]; protein TRIM28, HeLa) | fold changes relative to vehicle control ([13]; protein ERP29, HeLa) | fold changes relative to vehicle control ([14]; protein NUDT21, HeLa) | fold changes relative to vehicle control [15, 17] | fold changes relative to vehicle control ([1]; captured protein RAB14, HeLa) | fold changes relative to vehicle control ([2]; captured protein IPO8, HeLa) | fold changes relative to vehicle control ([3]; captured protein RBM14, HeLa) | fold changes relative to vehicle control [7, 18] [fold] | fold changes relative to vehicle control ([8]; HeLa, protein DDX5) | other results
1 | Nc1nc2c(c(=O)[nH]1)N(C=O)C(CNc1ccc(C(=O)N[C@@H](CCC(=O)O)C(=O)O)cc1)CN2 (stereo partly drawn) [LEU, leucovorin] | 0.95 | 0.86 | 0.92 | 0.99 | 1.04 | 0.9 | 1.07 | 0.88 | 0.93 | 0.94 | 1.01 | 0.88 | 0.97 | 1.11 | 1.02 | – | – | – | – | – | –
2 | Nc1nc2[nH]cc(CCc3ccc(C(=O)N[C@@H](CCC(=O)O)C(=O)O)cc3)c2c(=O)[nH]1 [PTX, pemetrexed] | – | – | – | – | – | – | – | – | – | – | – | – | – | – | – | – | – | – | – | – | fold changes relative to vehicle control [1]: 0.95; fold changes relative to vehicle control [2]: 0.83; fold changes relative to vehicle control [3]: 0.99; fold changes relative to vehicle control [4]: 0.93; fold changes relative to vehicle control [5]: 0.99; fold changes relative to vehicle control [6]: 0.94; fold changes relative to vehicle control [7]: 0.99; fold changes relative to vehicle control [8]: 0.82; fold changes relative to vehicle control [9]: 1.07; fold changes relative to vehicle control [10]: 0.97; fold changes relative to vehicle control [11]: 1.01; fold changes relative to vehicle control [12]: 0.97; fold changes relative to vehicle control [13]: 0.96; fold changes relative to vehicle control [14]: 0.97; fold changes relative to vehicle control [15]: 0.91
3 | CCCCCCOc1ccc(Cc2cnc(N)nc2N)cc1 [compound 1] | – | – | – | 1.07 | 0.99 | 0.88 | – | – | – | 1.19 | – | 1.12 | 1.29 | 1.16 | – | 0.89 | 0.55 | 0.72 | 1.22 | 0.92 | fold changes relative to vehicle control ([9]; captured protein BRWD1, HeLa): 1.01; fold changes relative to vehicle control ([11]; captured protein AIFM1, HeLa): 0.97; fold changes relative to vehicle control ([15]; captured protein MKRN2, HeLa): 0.9
4 | CCCCCCOc1cccc(Cc2cnc(N)nc2N)c1 [compound 2] | – | – | – | 1.11 | 0.99 | 1.13 | – | – | – | 1.79 | – | 1.44 | 1.77 | 1.28 | – | 1.22 | 0.8 | 1 | 2.4 | 1.12 | fold changes relative to vehicle control ([9]; captured protein BRWD1, HeLa): 1.03; fold changes relative to vehicle control ([11]; captured protein AIFM1, HeLa): 1; fold changes relative to vehicle control ([15]; captured protein MKRN2, HeLa): 0.9
5 | Nc1nc2cccc(-c3ccccc3)c2n1Cc1ccc(Cl)c(Cl)c1 [compound 3] | – | – | – | 0.92 | 1.1 | 0.89 | – | – | – | 0.85 | – | 1.02 | 0.94 | 0.99 | – | 0.82 | 0.6 | 0.87 | 0.86 | 0.9 | fold changes relative to vehicle control ([9]; captured protein BRWD1, HeLa): 0.9; fold changes relative to vehicle control ([11]; captured protein AIFM1, HeLa): 0.92; fold changes relative to vehicle control ([15]; captured protein MKRN2, HeLa): 0.89
6 | NCCOCCOCC(=O)Nc1nc2ncc(CNc3ccc(C(=O)NC(CCC(=O)O)C(=O)O)cc3)nc2c(=O)[nH]1 (stereo not drawn) [compound 6] | 0.97 | 0.91 | 1.06 | 1.06 | 0.96 | 0.93 | 1.17 | 1.15 | 1.05 | 1.15 | 0.99 | 1.02 | 1.24 | 1 | 0.92 | – | – | – | – | – | –
7 | NCCCNc1ccc(C(=O)NC(CCC(=O)O)C(=O)O)cc1 (stereo not drawn) [compound 7] | 0.86 | 0.82 | 1.1 | 1.15 | 1.05 | 0.95 | 0.88 | 0.93 | 0.92 | 0.85 | 1.06 | 0.9 | 0.88 | 0.98 | 0.98 | – | – | – | – | – | –
